Test results published in US20240148895A1, “ANTIBODY-DRUG CONJUGATE” (Eisai R&D Management Co., Ltd., priority 2022, published 2024).

Each compound was assayed on AsPC-1/Cas9 cell line (human pancreatic cancer cell line AsPC-1) (assay: AsPC-1/Cas9 growth inhibition assay). Settings: 5 days culture, CellTiter Glo 2.0, read-out: IC50 (Absolute IC50, 50% inhibition of cell growth).
Assay type: cell-based
Description: Human pancreatic cancer cell line AsPC-1 (ATCC Number CRL1682) was infected with Edit-R Lentiviral hCMV-Blast-Cas9 Nuclease Particle (Dharmacon, VCAS10124) in the presence of 8 μg/ml of Hexadimethrine bromide (Sigma, H9268), and after 24 hours it was exposed to 10 μg/ml of Blastcidin S (Thermo, A11139) to remove the uninfected cells, thereby establishing an AsPC-1/Cas9 cell line. The cells were maintenance cultured in a 5% CO2 incubator (37° C.) using RPMI-1640 (FujiFilm-Wako Pure Chemical Industries) containing 10% fetal bovine serum (FBS: SIGMA 173012) and penicillin/streptomycin (FujiFilm-Wako Pure Chemical Industries) (hereunder referred to simply as “culture medium”). After adding 25 μL of AsPC-1/Cas9 cell suspension prepared to 3.2×10^4 cells/mL using culture medium into each well of a 384-well plate (Greiner 781091), the cells were cultured overnight in a 5% CO2 incubator (37° C.). On the following day, 25 μL of the test substance diluted with culture medium was added to each well, and culturing was continued for 5 days in a 5% CO2 incubator (37° C.). Next, 25 μL of CellTiter Glo™ 2.0 (Promega) was added to each well, and the plate contents were mixed for 5 minutes using a plate mixer. The plate was stationed for 10 minutes at room temperature while shielded from light, and then the luminous intensity was measured with an ENVISION™ (Perkin-Elmer). The luminescence value of the wells with addition of test substance was determined as a relative value, with 100% as the luminescence value of the wells with cells but without addition of the test substance and 0% as the luminescence value of the wells without cells. A plot of test substance concentration against luminescence value % approximated a 4-parameter logistic curve, and the test substance concentration necessary for 50% inhibition of cell growth (Absolute IC50) was calculated, and is shown in Table 10. In Table 10, the antibodies listed as “CEACAM6_#84.7” are the anti-CEACAM6 antibody of Example 301-1, the antibodies listed as “003” are the anti-folate receptor α antibody of Example 301-2, and the antibodies listed as “345A12” are the anti-mesothelin antibody of Example 301-3.
According the same method as in the AsPC-1/Cas9 growth inhibition assay described in Example 313 above, the test substance concentration necessary for 50% inhibition of cell growth (Absolute IC50) in the ADC described in Example 318 was calculated and is shown in Table 12.

| Compound | IC50 |
| --- | --- |
| 2-Cyclopropoxy-2-(2-(4-(((2S,5R)-2,5-dimethylpiperazin-1-yl)methyl)piperidin-1-yl)-6-(4-methoxy-1-methyl-6-oxo-1,6-dihydropyridin-3-yl)quinazolin-4-yl)-2-phenylethyl methyl(2-(methylamino)ethyl)carbamate [Example 34] | 0.083 nM |
| 4-(2-(4-Amino-4-methyl-[1,4′-bipiperidin]-1′-yl)-4-(1-cyclopropoxy-2-hydroxy-1-phenylethyl)quinazolin-6-yl)-6-methyl-1,6-dihydro-7H-pyrrolo[2,3-c]pyridin-7-one [Example 27] | < 0.015 nM |
| CCn1c(=O)nc(C(CO)(OC)c2ccccc2)c2cc(-c3cc(C)c(=O)n(C)c3)ccc21 (racemic) [Example 17, 6-(1,5-Dimethyl-6-oxo-1,6-dihydropyridin-3-yl)-1-ethyl-4-(2-hydroxy-1-methoxy-1-phenylethyl)quinazoline-2(1H)-one] | 0.04 nM |
| Cc1cc(-c2ccc3nc(NS(C)(=O)=O)nc(C(CO)(CC4CC4)c4ccccn4)c3c2)cn(C)c1=O (stereo not shown) [Example 5, N-(4-(1-Cyclopropyl-3-hydroxy-2-(pyridin-2-yl)propan-2-yl)-6-(1,5-dimethyl-6-oxo-1,6-dihydropyridin-3-yl)quinazolin-2-yl)methanesulfonamide] | 0.035 nM |
| Cc1cc(-c2ccc3nc(N=S(C)(C)=O)nc(C(CO)(CC4CCOCC4)c4ccccc4)c3c2)cn(C)c1=O (stereo not shown) [Example 6] | 0.029 nM |
| Cc1cc(-c2ccc3nc(N=S(C)(C)=O)nc(C(CO)(CC(C)C)c4ccccc4)c3c2)cn(C)c1=O (stereo not shown) [Example 7, 5-(2-((Dimethyl(oxo)-16-sulfanylidene)amino)-4-(1-hydroxy-4-methyl-2-phenylpentan-2-yl)quinazolin-6-yl)-1,3-dimethylpyridin-2(1H)-one] | 0.051 nM |
| Cc1cc(-c2ccc3nc(NS(C)(=O)=O)nc(C(CO)(CC4CCC4)c4ccccc4)c3c2)cn(C)c1=O (stereo not shown) [Example 8, N-(4-(1-Cyclobutyl-3-hydroxy-2-phenylpropan-2-yl)-6-(1,5-dimethyl-6-oxo-1,6-dihydropyridin-3-yl)quinazolin-2-yl)methanesulfonamide] | 0.043 nM |
| Cc1cc(-c2ccc3cc(N=S(C)(C)=O)nc(C(CO)(OC4CC4)c4ccccc4)c3c2)cn(C)c1=O (stereo not shown) [Example 9, 5-(1-(1-Cyclopropoxy-2-hydroxy-1-phenylethyl)-3-((dimethyl(oxo)-16-sulfanylidene)amino)isoquinolin-7-yl)-1,3-dimethylpyridin-2(1H)-one] | 0.075 nM |
| Cc1cc(-c2ccc3nc(NC(=O)N4CC(O)C4)nc(C(CO)(OC4CC4)c4ccccc4)c3c2)cn(C)c1=O (stereo not shown) [Example 10, N-(4-(1-Cyclopropoxy-2-hydroxy-1-phenylethyl)-6-(1,5-dimethyl-6-oxo-1,6-dihydropyridin-3-yl)quinazolin-2-yl)-3-hydroxyazetidine-1-carboxamide] | 0.036 nM |
| CCCC(CO)(c1ccccn1)c1[nH]c(=O)cc2ccc(-c3cc(C)c(=O)n(C)c3)cc12 (stereo not shown) [Example 11, 7-(1,5-Dimethyl-6-oxo-1,6-dihydropyridin-3-yl)-1-(1-hydroxy-2-(pyridin-2-yl)pentan-2-yl)isoquinoline-3(2H)-one] | 0.039 nM |
| CCOCCC(CO)(c1ccccn1)c1nc(N)nc2ccc(-c3cc(C)c(=O)n(C)c3)cc12 (stereo not shown) [Example 12, 5-(2-Amino-4-(4-ethoxy-1-hydroxy-2-(pyridin-2-yl)butan-2-yl)quinazolin-6-yl)-1,3-dimethylpyridin-2(1H)-one] | 0.038 nM |
| Cc1cc(-c2ccc3nc(N=S(C)(C)=O)nc(C(CO)(OC4CCC4)c4ccccc4)c3c2)cn(C)c1=O (stereo not shown) [Example 13, 5-(4-(1-Cyclobutoxy-2-hydroxy-1-phenylethyl)-2-((dimethyl (oxo)-16-sulfanylidene)amino)quinazolin-6-yl)-1,3-dimethylpyridin-2(1H)-one] | 0.043 nM |
| CN1CCC(Oc2nc(C(CO)(OC3CC3)c3ccccc3)c3cc(-c4cn(C)c(=O)c5c4COC5)ccc3n2)CC1 (stereo not shown) [Example 14, 7-(4-(1-Cyclopropoxy-2-hydroxy-1-phenylethyl)-2-((1-methylpiperidin-4-yl)oxy)quinazolin-6-yl)-5-methyl-3,5-dihydrofuro[3,4-c]pyridine-4(1H)-one] | 0.038 nM |
| Cc1cc(-c2ccc3nc(N)nc(C(CO)(OC4CC4)c4cccs4)c3c2)cn(C)c1=O (stereo not shown) [Example 15, 5-(2-Amino-4-(1-cyclopropoxy-2-hydroxy-1-(thiophen-2-yl)ethyl)quinazolin-6-yl)-1,3-dimethylpyridin-2(1H)-one] | 0.039 nM |
| CCOC(CO)(c1ccccc1)c1nc(C(N)=O)cc2ccc(-c3cc(C)c(=O)n(C)c3)cc12 (stereo not shown) [Example 16, 7-(1,5-Dimethyl-6-oxo-1,6-dihydropyridin-3-yl)-1-(1-ethoxy-2-hydroxy-1-phenylethyl)isoquinoline-3-carboxamide] | 0.035 nM |
| Cc1cc(-c2ccc3nc(CNS(C)(=O)=O)nc(C(CO)(OC4CC4)c4ccccc4)c3c2)cn(C)c1=O (stereo not shown) [Example 18, N-((4-(1-Cyclopropoxy-2-hydroxy-1-phenylethyl)-6-(1,5-dimethyl-6-oxo-1,6-dihydropyridin-3-yl)quinazolin-2-yl)methyl)methanesulfonamide] | 0.047 nM |
| Cc1cc(-c2ccc3nc(N=S(C)(C)=O)nc(C(CO)(OC(C)C)c4ccccc4)c3c2)cn(C)c1=O (stereo not shown) [Example 19, 5-(2-((Dimethyl(oxo)-16-sulfanylidene)amino)-4-(2-hydroxy-1-isopropoxy-1-phenylethyl)quinazolin-6-yl)-1,3-dimethylpyridin-2(1H)-one] | 0.031 nM |
| Cc1cc(-c2ccc3nc(N)nc(C(CO)(CC4CC4)c4cccnc4)c3c2)cn(C)c1=O (stereo not shown) [Example 20, 5-(2-Amino-4-(1-cyclopropyl-3-hydroxy-2-(pyridin-3-yl)propan-2-yl)quinazolin-6-yl)-1,3-dimethylpyridin-2(1H)-one] | 0.035 nM |
| COc1ccc(CC(CO)(c2ccccn2)c2nc(N=S(C)(C)=O)nc3ccc(-c4cc(C)c(=O)n(C)c4)cc23)cc1F (stereo not shown) [Example 21, 5-(2-((Dimethyl(oxo)-16-sulfanylidene)amino)-4-(1-(3-fluoro-4-methoxyphenyl)-3-hydroxy-2-(pyridin-2-yl)propan-2-yl)quinazolin-6-yl)-1,3-dimethylpyridin-2(1H)-one] | 0.061 nM |
| COCCC(CO)(c1ccccc1)c1nc(N=S(C)(C)=O)nc2ccc(-c3cc(C)c(=O)n(C)c3)cc12 (stereo not shown) [Example 22, 5-(2-((Dimethyl(oxo)-16-sulfanylidene)amino)-4-(1-hydroxy-4-methoxy-2-phenylbutan-2-yl)quinazolin-6-yl)-1,3-dimethylpyridin-2(1H)-one] | 1.6 nM |
| Cc1cc(-c2ccc3nc(N=S(C)(C)=O)nc(C(CO)(Cc4ccccc4)c4ccccc4)c3c2)cn(C)c1=O (stereo not shown) [Example 23, 5-(2-((Dimethyl(oxo)-16-sulfanylidene)amino)-4-(1-hydroxy-2,3-diphenylpropan-2-yl)quinazolin-6-yl)-1,3-dimethylpyridin-2(1H)-one] | 0.034 nM |
| Cc1cc(-c2ccc3nc(N)nc(C(CO)(Cc4ccccc4)c4ncccn4)c3c2)cn(C)c1=O (stereo not shown) [Example 24, 5-(2-Amino-4-(1-hydroxy-3-phenyl-2-(pyrimidin-2-yl)propan-2-yl)quinazolin-6-yl)-1,3-dimethylpyridin-2(1H)-one] | 0.043 nM |
